Reference: ChEMBL document CHEMBL3885881, “DrugMatrix”

Organism: Rattus norvegicus
Test: DrugMatrix - Regimen: Daily Repeat
Type: toxicity, organism-based, Sprague-Dawley
Design: regimen Daily Repeat, gender Male, age 6-8 weeks
Settings: in vivo, po, 75 mg/kg, route oral GAVAGE, dose level High, vehicle .5 % CMC; for ABSOLUTE BASOPHIL / ABSOLUTE EOSINOPHIL / ABSOLUTE LYMPHOCYTE / ABSOLUTE MONOCYTE / ABSOLUTE SEGMENTED NEUTROPHIL / BASOPHIL / EOSINOPHIL / ERYTHROCYTE COUNT / HEMATOCRIT / HEMOGLOBIN / LEUKOCYTE COUNT / LYMPHOCYTE / MEAN CORPUSCULAR HEMOGLOBIN / MEAN CORPUSCULAR HEMOGLOBIN CONCENTRATION / MEAN CORPUSCULAR VOLUME / MONOCYTE / NEUTROPHIL / NUCLEATED RED BLOOD CELLS / PLATELET COUNT: tissue Blood; for ALANINE AMINOTRANSFERASE / ALBUMIN / ALKALINE PHOSPHATASE / ASPARTATE AMINOTRANSFERASE / BLOOD UREA NITROGEN / CARBON DIOXIDE / CHLORIDE / CHOLESTEROL / CREATININE / GLUCOSE / LACTATE DEHYDROGENASE / LIPASE / PHOSPHORUS / POTASSIUM / SODIUM / TOTAL BILIRUBIN / TOTAL PROTEIN / URIC ACID: tissue Plasma

Nc1ccc(Cl)cc1 [4-CHLOROANILINE]
ABSOLUTE BASOPHIL (120 h, time 5 day): 0 CELLS/uL
ABSOLUTE EOSINOPHIL (120 h, time 5 day): 666.67 CELLS/uL
ABSOLUTE LYMPHOCYTE (120 h, time 5 day): 19854.67 CELLS/uL
ABSOLUTE MONOCYTE (120 h, time 5 day): 430.67 CELLS/uL
ABSOLUTE SEGMENTED NEUTROPHIL (120 h, time 5 day): 5848 CELLS/uL
BASOPHIL (120 h, time 5 day): 0%
EOSINOPHIL (120 h, time 5 day): 2.33%
ERYTHROCYTE COUNT (120 h, time 5 day): 4.48 x10E6/uL
HEMATOCRIT (120 h, time 5 day): 32.57%
HEMOGLOBIN (120 h, time 5 day): 13.73 G/DL
LEUKOCYTE COUNT (120 h, time 5 day): 26.8 x10E3/uL
LYMPHOCYTE (120 h, time 5 day): 74%
MEAN CORPUSCULAR HEMOGLOBIN (120 h, time 5 day): 30.77 pg
MEAN CORPUSCULAR HEMOGLOBIN CONCENTRATION (120 h, time 5 day): 42.2 G/DL
MEAN CORPUSCULAR VOLUME (120 h, time 5 day): 72.87 fL
MONOCYTE (120 h, time 5 day): 1.67%
NEUTROPHIL (120 h, time 5 day): 22%
NUCLEATED RED BLOOD CELLS (120 h, time 5 day): 1.33 /100WBC
PLATELET COUNT (120 h, time 5 day): 1147 x10E3/uL
ALANINE AMINOTRANSFERASE (120 h, time 5 day): 61.33 u/L
ALBUMIN (120 h, time 5 day): 4.23 G/DL
ALKALINE PHOSPHATASE (120 h, time 5 day): 360.33 u/L
ASPARTATE AMINOTRANSFERASE (120 h, time 5 day): 93.67 u/L
BLOOD UREA NITROGEN (120 h, time 5 day): 13 mg/dL
CARBON DIOXIDE (120 h, time 5 day): 31.33 mmol/L
CHLORIDE (120 h, time 5 day): 102.33 MEQ/L
CHOLESTEROL (120 h, time 5 day): 64.67 mg/dL
CREATININE (120 h, time 5 day): 0.2 mg/dL
GLUCOSE (120 h, time 5 day): 157.33 mg/dL
LACTATE DEHYDROGENASE (120 h, time 5 day): 180.67 u/L
LIPASE (120 h, time 5 day): 9 u/L
PHOSPHORUS (120 h, time 5 day): 11.23 mg/dL
POTASSIUM (120 h, time 5 day): 6.43 MEQ/L
SODIUM (120 h, time 5 day): 148.33 MEQ/L
TOTAL BILIRUBIN (120 h, time 5 day): 0.43 mg/dL
TOTAL PROTEIN (120 h, time 5 day): 6.23 G/DL
URIC ACID (120 h, time 5 day): 1.87 mg/dL
ABSOLUTE BASOPHIL ([…], time 14 day): 0 CELLS/uL
ABSOLUTE EOSINOPHIL ([…], time 14 day): 83.2 CELLS/uL
ABSOLUTE LYMPHOCYTE ([…], time 14 day): 19196.8 CELLS/uL
ABSOLUTE MONOCYTE ([…], time 14 day): 524.8 CELLS/uL
ABSOLUTE SEGMENTED NEUTROPHIL ([…], time 14 day): 2275.2 CELLS/uL
BASOPHIL ([…], time 14 day): 0%
EOSINOPHIL ([…], time 14 day): 0.4%
ERYTHROCYTE COUNT ([…], time 14 day): 3.73 x10E6/uL
HEMATOCRIT ([…], time 14 day): 34.9%
HEMOGLOBIN ([…], time 14 day): 13.26 G/DL
LEUKOCYTE COUNT ([…], time 14 day): 22.08 x10E3/uL
LYMPHOCYTE ([…], time 14 day): 86.8%
MEAN CORPUSCULAR HEMOGLOBIN ([…], time 14 day): 35.82 pg
MEAN CORPUSCULAR HEMOGLOBIN CONCENTRATION ([…], time 14 day): 38.02 G/DL
MEAN CORPUSCULAR VOLUME ([…], time 14 day): 94.18 fL
MONOCYTE ([…], time 14 day): 2.4%
NEUTROPHIL ([…], time 14 day): 10.4%
NUCLEATED RED BLOOD CELLS ([…], time 14 day): 1 /100WBC
PLATELET COUNT ([…], time 14 day): 846.6 x10E3/uL
ALANINE AMINOTRANSFERASE ([…], time 14 day): 56.6 u/L
ALBUMIN ([…], time 14 day): 4.38 G/DL
ALKALINE PHOSPHATASE ([…], time 14 day): 320.6 u/L
ASPARTATE AMINOTRANSFERASE ([…], time 14 day): 128 u/L
BLOOD UREA NITROGEN ([…], time 14 day): 15.4 mg/dL
CARBON DIOXIDE ([…], time 14 day): 29.8 mmol/L
CHLORIDE ([…], time 14 day): 103.2 MEQ/L
CHOLESTEROL ([…], time 14 day): 57 mg/dL
CREATININE ([…], time 14 day): 0.22 mg/dL
GLUCOSE ([…], time 14 day): 123.8 mg/dL
LACTATE DEHYDROGENASE ([…], time 14 day): 440.6 u/L
LIPASE ([…], time 14 day): 9.6 u/L
PHOSPHORUS ([…], time 14 day): 10.5 mg/dL
POTASSIUM ([…], time 14 day): 6.12 MEQ/L
SODIUM ([…], time 14 day): 148.96 MEQ/L
TOTAL BILIRUBIN ([…], time 14 day): 0.54 mg/dL
TOTAL PROTEIN ([…], time 14 day): 6.16 G/DL
URIC ACID ([…], time 14 day): 1.72 mg/dL
